How the values were obtained:
Cereblon (CRBN) [1] = molecular target: T1, Cereblon (CRBN) (Homo sapiens, UniProt Q96SW2); experiment: cryo-EM structure ([…] Å and […] Å); TR-FRET thalidomide displacement (IC50); FIDA and SEC-MALS; format: binding; design: 6xHis-CRBN-DDB1 complex (per checker note), TR-FRET thalidomide displacement; not the cryo-EM CRBN 41-442/DDB1ΔBPB homodimer
Target sequence in this assay (Q96SW2 whole entry): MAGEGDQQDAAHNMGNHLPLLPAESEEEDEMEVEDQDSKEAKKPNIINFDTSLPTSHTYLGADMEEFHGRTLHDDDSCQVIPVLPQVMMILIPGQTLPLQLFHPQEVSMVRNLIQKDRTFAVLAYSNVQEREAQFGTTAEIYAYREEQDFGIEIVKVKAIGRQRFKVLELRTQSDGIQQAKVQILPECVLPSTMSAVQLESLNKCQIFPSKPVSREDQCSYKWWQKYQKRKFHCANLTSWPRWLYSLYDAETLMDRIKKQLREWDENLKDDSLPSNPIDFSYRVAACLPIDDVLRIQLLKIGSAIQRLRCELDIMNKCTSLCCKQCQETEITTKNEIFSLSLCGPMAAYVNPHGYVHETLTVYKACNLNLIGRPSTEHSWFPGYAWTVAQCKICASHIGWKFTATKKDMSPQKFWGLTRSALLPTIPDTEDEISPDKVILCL
Target sequence in this assay (Q16531 2-1140 partner): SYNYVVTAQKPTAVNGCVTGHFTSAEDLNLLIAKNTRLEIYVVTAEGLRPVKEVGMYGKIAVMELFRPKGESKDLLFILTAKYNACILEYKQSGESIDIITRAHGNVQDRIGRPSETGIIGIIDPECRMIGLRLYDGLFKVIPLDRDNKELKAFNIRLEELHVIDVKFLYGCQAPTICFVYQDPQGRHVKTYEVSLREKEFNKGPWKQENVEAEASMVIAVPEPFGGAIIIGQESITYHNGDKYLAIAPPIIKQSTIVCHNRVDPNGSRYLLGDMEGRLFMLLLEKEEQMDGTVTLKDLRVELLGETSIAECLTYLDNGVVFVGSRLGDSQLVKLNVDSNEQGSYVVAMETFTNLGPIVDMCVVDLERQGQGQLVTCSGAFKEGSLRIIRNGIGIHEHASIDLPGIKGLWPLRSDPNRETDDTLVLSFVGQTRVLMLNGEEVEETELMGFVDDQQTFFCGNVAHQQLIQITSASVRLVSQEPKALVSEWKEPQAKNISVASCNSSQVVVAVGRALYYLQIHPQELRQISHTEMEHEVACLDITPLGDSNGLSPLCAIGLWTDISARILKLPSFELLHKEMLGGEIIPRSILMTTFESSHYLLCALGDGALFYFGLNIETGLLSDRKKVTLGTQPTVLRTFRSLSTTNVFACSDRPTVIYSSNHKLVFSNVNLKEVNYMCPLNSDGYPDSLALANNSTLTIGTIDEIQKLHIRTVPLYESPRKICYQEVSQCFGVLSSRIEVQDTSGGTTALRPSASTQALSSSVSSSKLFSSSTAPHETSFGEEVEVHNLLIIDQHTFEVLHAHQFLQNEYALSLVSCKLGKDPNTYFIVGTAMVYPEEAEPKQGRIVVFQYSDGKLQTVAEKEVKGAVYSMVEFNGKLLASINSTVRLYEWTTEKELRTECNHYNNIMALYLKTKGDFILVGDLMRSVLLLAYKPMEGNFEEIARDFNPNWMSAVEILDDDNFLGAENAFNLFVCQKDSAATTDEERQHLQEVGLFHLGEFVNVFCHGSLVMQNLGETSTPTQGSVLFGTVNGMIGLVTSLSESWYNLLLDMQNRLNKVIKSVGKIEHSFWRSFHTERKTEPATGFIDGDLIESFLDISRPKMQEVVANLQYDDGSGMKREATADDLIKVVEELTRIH

Cereblon (CRBN) [2] = molecular target: T1, Cereblon (CRBN); experiment: TR-FRET displacement of Cy5-thalidomide from CRBN-DDB1; format: binding; design: 6xHis-CRBN-DDB1 complex; with DDB1
Target sequence in this assay (Q96SW2 40-442): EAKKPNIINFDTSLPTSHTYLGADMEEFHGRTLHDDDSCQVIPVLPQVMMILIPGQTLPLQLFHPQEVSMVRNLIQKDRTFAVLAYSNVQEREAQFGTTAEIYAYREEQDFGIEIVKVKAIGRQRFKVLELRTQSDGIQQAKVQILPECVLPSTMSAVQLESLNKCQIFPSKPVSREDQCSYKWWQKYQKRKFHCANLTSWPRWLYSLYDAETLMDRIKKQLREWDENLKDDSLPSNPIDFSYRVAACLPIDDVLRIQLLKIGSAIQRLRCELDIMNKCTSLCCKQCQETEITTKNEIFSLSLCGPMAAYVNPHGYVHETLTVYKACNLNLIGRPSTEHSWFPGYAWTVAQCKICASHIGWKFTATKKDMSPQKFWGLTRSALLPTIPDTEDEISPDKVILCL
Target sequence in this assay (Q16531 whole entry partner): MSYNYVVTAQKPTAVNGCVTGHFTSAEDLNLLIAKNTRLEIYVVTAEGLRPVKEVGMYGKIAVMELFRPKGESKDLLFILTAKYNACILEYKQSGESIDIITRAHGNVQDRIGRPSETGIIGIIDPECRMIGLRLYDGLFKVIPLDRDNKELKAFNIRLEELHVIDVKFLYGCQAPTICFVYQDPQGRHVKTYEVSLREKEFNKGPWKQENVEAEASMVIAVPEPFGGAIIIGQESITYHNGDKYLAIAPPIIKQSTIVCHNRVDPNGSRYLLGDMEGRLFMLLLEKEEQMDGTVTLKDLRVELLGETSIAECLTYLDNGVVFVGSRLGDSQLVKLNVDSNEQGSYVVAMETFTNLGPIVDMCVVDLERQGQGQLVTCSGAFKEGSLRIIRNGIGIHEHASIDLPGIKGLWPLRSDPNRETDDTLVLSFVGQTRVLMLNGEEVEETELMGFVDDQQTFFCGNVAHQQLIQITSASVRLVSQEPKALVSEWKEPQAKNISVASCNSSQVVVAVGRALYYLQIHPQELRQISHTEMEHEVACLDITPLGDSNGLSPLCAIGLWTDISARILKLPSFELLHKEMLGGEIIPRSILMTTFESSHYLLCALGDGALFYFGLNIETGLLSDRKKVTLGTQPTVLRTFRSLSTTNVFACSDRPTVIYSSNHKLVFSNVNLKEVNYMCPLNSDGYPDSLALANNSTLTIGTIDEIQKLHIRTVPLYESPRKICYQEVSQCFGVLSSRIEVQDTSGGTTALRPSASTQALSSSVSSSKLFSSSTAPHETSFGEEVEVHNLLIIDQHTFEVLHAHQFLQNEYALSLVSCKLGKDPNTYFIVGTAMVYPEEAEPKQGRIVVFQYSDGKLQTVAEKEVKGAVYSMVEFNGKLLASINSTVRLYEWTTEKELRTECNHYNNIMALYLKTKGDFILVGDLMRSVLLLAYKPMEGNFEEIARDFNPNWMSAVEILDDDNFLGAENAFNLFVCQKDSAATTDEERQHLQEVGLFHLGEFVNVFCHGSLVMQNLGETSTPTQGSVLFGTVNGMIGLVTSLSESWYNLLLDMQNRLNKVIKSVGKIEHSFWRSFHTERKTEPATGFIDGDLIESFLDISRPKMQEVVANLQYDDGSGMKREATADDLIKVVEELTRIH

O=C1CCC(N2Cc3ccc(N4CCC5(CCN(C(=O)c6ccccc6)CC5)C4)cc3C2=O)C(=O)N1 (centres unmarked) [MRT-31619]
IC50 (Cereblon (CRBN) [1]): 0.014 µM

O=C1CCC(N2Cc3ccc(N4CCC5(CCN(Cc6ccccc6)CC5)C4)cc3C2=O)C(=O)N1 (centres unmarked) [MRT-30568]
IC50 (Cereblon (CRBN) [2]): 0.06 µM

From article PMC12630686, “A degron-mimicking molecular glue drives CRBN homo-dimerization and degradation” (Nature Communications, 2025)
